Patent publication US20050148034A1, “Methods for identification of modulators of angiogenesis, compounds discovered thereby, and methods of treatment using the compounds” (priority 2002, published 2005)

Tested on: umbilical vessel explant / cultured cells
Experiment: Umbilical vessel ring assays, photomicrographs of cultured cells (FIGS. 1-3)
Type: cell-based, human
Description: FIGS. 1(A-D). Photomicrographs of cultured cells in umbilical vessel ring assays as described in Section 6.2. A. Positive control. The explant was cultured in media+EGCF 200 μg/ml. […] B. Negative control. The explant was cultured in placental conditioned media+supplement. In the absence of EGCF, fewer cells migrated from the explant than in the positive control (A). C. Treatment Group 3. The explant was cultured in placental conditioned media+EGCF 200 μg/ml+Thalomid™ 100 μg/ml. […] D. Treatment Group 2. The explant was cultured in placental conditioned media+EGCF 200 μg/ml+Thalomid™ 10 μg/ml.
FIGS. 2(A-C). Photomicrographs of cultured cells in umbilical vessel ring assays as described in Section 6.2. A. Control. Cells were cultured in placental conditioned media+ECGF 200 μg/ml+DMSO 1 μg/ml. B. Cells were cultured in placental conditioned media+ECGF 200 μg/ml+DMSO 1 μg/ml+Thalomid™ 1 μg/ml. […]. Cells were cultured in placental conditioned media+ECGF 200 μg/ml+DMSO 1 μg/ml+Thalomid™ 10 μg/ml.
FIGS. 3(A-B). Photomicrographs of cultured cells in umbilical vessel ring assays as described in Section 6. A. Control. Cells were cultured in placental conditioned media+DMSO. […] B. Cells were cultured in placental conditioned media+DMSO+Thalomid™.
Embryonic-like stem cells were isolated from placenta as described above in Section 5.4. The embryonic-like stem cells were cultured using the culture conditions described above.

## O=C1CCC(N2C(=O)c3ccccc3C2=O)C(=O)N1 (centres unmarked) [Thalomid, thalidomide, reference compound]
Placental conditioned media + DMSO (FIG. 3)
  cell phenotype (branching / non-branching): More cells exhibit a branching (e.g., neuronal) phenotype than in the control
Placental conditioned media + ECGF 200 μg/ml + DMSO 1 μg/ml + 1 μg/ml (FIG. 2)
  number of cells seen: Fewer cells are seen than in the control
Placental conditioned media + ECGF 200 μg/ml + DMSO 1 μg/ml + 10 μg/ml (FIG. 2)
  number of cells seen: Fewer cells are seen than in the control (A) or in (B)
Placental conditioned media + EGCF 200 μg/ml + 10 μg/ml (FIG. 1D)
  cell migration from the explant and outgrowth: cells migrated a shorter distance from the explant and they exhibited less dense outgrowth than in the positive control
Placental conditioned media + EGCF 200 μg/ml + 100 μg/ml (FIG. 1C)
  cell migration from the explant: cells migrated a shorter distance from the explant than in the positive control
